In patent publication US11149040B2, “Fused triazole agonists of the APJ receptor” (AMGEN INC., priority 2017, dated 2021):

Target: human APJ receptor (Homo sapiens (Human), UniProt P35414)
Assay: [35S]GTPγS binding assay on membranes from CHO cells stably expressing human APJ receptor
Assay type: biochemical
Conditions: read-out: Activity hAPJ SPA EC50 IP
Method: [^35S]GTPγS Binding The human APJ receptor was cloned by polymerase chain reaction and the gene encoding the receptor was subcloned in pFLAG-CMV™-3 expression vector (Sigma, Saint Louis, Mo. USA) in-house at Amgen. A GTPγS binding assay was performed on membranes prepared from CHO cells stably expressing human APJ receptor. The optimum experimental conditions for the concentrations of GDP, MgCl2, and NaCl in the assay buffer were initially determined. […] Incubation was at RT for 90 min and the microplate was read using a ViewLux™ ultra HTS Microplate Imager (PerkinElmer, Inc.). All the results presented are means of several independent experiments and analyzed by non-linear regression methods using the commercially available program Prism (GraphPad, San Diego, Calif.) providing the EC50 values detailed in Table 13.

Chain of human APJ receptor (P35414 whole entry): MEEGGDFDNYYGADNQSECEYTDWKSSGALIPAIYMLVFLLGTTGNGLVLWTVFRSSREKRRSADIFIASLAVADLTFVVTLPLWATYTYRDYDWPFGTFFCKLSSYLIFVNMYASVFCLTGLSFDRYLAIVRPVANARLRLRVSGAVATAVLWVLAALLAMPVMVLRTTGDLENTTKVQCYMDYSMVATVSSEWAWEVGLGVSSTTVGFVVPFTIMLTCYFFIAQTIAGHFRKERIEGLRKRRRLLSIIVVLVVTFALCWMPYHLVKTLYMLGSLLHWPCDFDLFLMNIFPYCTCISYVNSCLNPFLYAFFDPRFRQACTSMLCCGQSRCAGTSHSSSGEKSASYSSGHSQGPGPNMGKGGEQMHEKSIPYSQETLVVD

Structure (SMILES)	EC50 [nM]
COC[C@@H]1COc2ncccc2-c2nnc(NS(=O)(=O)[C@@H](C)[C@H](OC(C)C)c3ncc(C)cn3)n21 (single isomer, unassigned) [Example 67.0, (1R,2S)-N-((5R)-5-(methoxymethyl)-5,6-dihydropyrido[3,2-f][1,2,4]triazolo[4,3-d][1,4]oxazepin-3-yl)-1-(5-methyl-2-pyrimidinyl)-1-(2-propanyloxy)-2-propanesulfonamide or (1R,2S)-N-((5S)-5-(methoxymethyl)-5,6-dihydropyrido[3,2-f][1,2,4]triazolo[4,3-d][1,4]oxazepin-3-yl)-1-(5-methyl-2-pyrimidinyl)-1-(2-propanyloxy)-2-propanesulfonamide]	250
COc1ccc2c(n1)-c1nnc(NS(=O)(=O)[C@@H](C)[C@@H](OC(C)C)c3ncc(C)cn3)n1[C@H](CO)CO2 (single isomer, unassigned) [Example 18.0, (1S,2S)-N-((R)-5-(hydroxymethyl)-10-methoxy-5,6-dihydropyrido[2,3-f][1,2,4]triazolo[4,3-d][1,4]oxazepin-3-yl)-1-isopropoxy-1-(5-methylpyrimidin-2-yl)propane-2-sulfonamide or (1S,2S)-N-((S)-5-(hydroxymethyl)-10-methoxy-5,6-dihydropyrido[2,3-f][1,2,4]traizolo[4,3-d][1,4]oxazepin-3-yl)-1-isopropoxy-1-(5-methylpyrimidin-2-yl)propane-2-sulfonamide]	640
COC[C@@H]1COc2ncccc2-c2nnc(NS(=O)(=O)[C@@H](C)[C@@H](OC(C)C)c3ncc(Cl)cn3)n21 (single isomer, unassigned) [Example 44.0, (1S,2S)-1-(5-chloro-2-pyrimidinyl)-N-((5R)-5-(methoxymethyl)-5,6-dihydropyrido[3,2-f][1,2,4]triazolo[4,3-d][1,4]oxazepin-3-yl)-1-(2-propanyloxy)-2-propanesulfonamide or (1S,2S)-1-(5-chloro-2-pyrimidinyl)-N-((5S)-5-(methoxymethyl)-5,6-dihydropyrido[3,2-f][1,2,4]triazolo[4,3-d][1,4]oxazepin-3-yl)-1-(2-propanyloxy)-2-propanesulfonamide]	15
COC[C@@H]1COc2ccc(F)cc2-c2nnc(NS(=O)(=O)[C@@H](C)[C@@H](OC(C)C)c3ncc(C)cn3)n21 (mixture of isomers) [Example 23.0, (1S,2S)-N-((5R)-10-fluoro-5-(methoxymethyl)-5,6-dihydro[1,2,4]triazolo[4,3-d][1,4]benzoxazepin-3-yl)-1-(5-methyl-2-pyrimidinyl)-1-(2-propanyloxy)-2-propanesulfonamide and (1S,2S)-N-((5S)-10-fluoro-5-(methoxymethyl)-5,6-dihydro[1,2,4]triazolo[4,3-d][1,4]benzoxazepin-3-yl)-1-(5-methyl-2-pyrimidinyl)-1-(2-propanyloxy)-2-propanesulfonamide]	37
Cc1cnc([C@H](OC(C)C)[C@H](C)S(=O)(=O)Nc2nnc3n2-c2c(F)cccc2/C=C\C[C@@H]3C)nc1 (single isomer, unassigned) [Example 50.0]	12
COC[C@@H]1COc2ncccc2-c2nnc(NS(=O)(=O)CCc3ncc(C)cn3)n21 (single isomer, unassigned) [Example 34.0, N-((5R)-5-(methoxymethyl)-5,6-dihydropyrido[3,2-f][1,2,4]triazolo[4,3-d][1,4]oxazepin-3-yl)-2-(5-methyl-2-pyrimidinyl)ethanesulfonamide or N-((5S)-5-(methoxymethyl)-5,6-dihydropyrido[3,2-f][1,2,4]triazolo[4,3-d][1,4]oxazepin-3-yl)-2-(5-methyl-2-pyrimidinyl)ethanesulfonamide]	180
COC[C@@H]1COc2c(OC)cccc2-c2nnc(NS(=O)(=O)[C@@H](C)[C@H](C)c3ncc(OC)cn3)n21 (single isomer, unassigned) [Example 8.0, (2S,3R)-N-((5R)-8-methoxy-5-(methoxymethyl)-5,6-dihydro[1,2,4]triazolo[4,3-d][1,4]benzoxazepin-3-yl)-3-(5-methoxy-2-pyrimidinyl)-2-butanesulfonamide or (2S,3R)-N-((5S)-8-methoxy-5-(methoxymethyl)-5,6-dihydro[1,2,4]triazolo[4,3-d][1,4]benzoxazepin-3-yl)-3-(5-methoxy-2-pyrimidinyl)-2-butanesulfonamide]	270
COC[C@@H]1COc2ccc(F)cc2-c2nnc(NS(=O)(=O)[C@@H](C)[C@H](OC)c3ncc(C)cn3)n21 (stereo in doubt) [Example 24.0, (1R,2S)-N-((5R)-10-fluoro-5-(methoxymethyl)-5,6-dihydro[1,2,4]traizolo[4,3-d][1,4]benzoxazepin-3-yl)-1-methoxy-1-(5-methyl-2-pyrimidinyl)-2-propanesulfonamide and (1R,2S)-N-((5S)-10-fluoro-5-(methoxymethyl)-5,6-dihydro[1,2,4]triazolo[4,3-d][1,4]benzoxazepin-3-yl)-1-methoxy-1-(5-methyl-2-pyrimidinyl)-2-propanesulfonamide]	260
COC[C@@H]1COc2cnccc2-c2nnc(NS(=O)(=O)[C@@H](C)[C@@H](OC(C)C)c3ncc(C)cn3)n21 (mixture of isomers) [Example 65.0, (1S,2S)-N-((5R)-5-(methoxymethyl)-5,6-dihydropyrido[4,3-f][1,2,4]triazolo[4,3-d][1,4]oxazepin-3-yl)-1-(5-methyl-2-pyrimidinyl)-1-(2-propanyloxy)-2-propanesulfonamide and (1S,2S)-N-((5S)-5-(methoxymethyl)-5,6-dihydropyrido[4,3-f][1,2,4]triazolo[4,3-d][1,4]oxazepin-3-yl)-1-(5-methyl-2-pyrimidinyl)-1-(2-propanyloxy)-2-propanesulfonamide]	1200
CO[C@H](c1ncc(C)cn1)[C@H](C)S(=O)(=O)Nc1nnc2n1[C@H](COC(C)C)COc1ncccc1-2 (single isomer, unassigned) [Example 64.0, (1R,2S)-N-((R)-5-(isopropoxymethyl)-5,6-dihydropyrido[3,2-f][1,2,4]triazolo[4,3-d][1,4]oxazepin-3-yl)-1-methoxy-1-(5-methylpyrimidin-2-yl)propane-2-sulfonamide or (1R,2S)-N-((S)-5-(isopropoxymethyl)-5,6-dihydropyrido[3,2-f][1,2,4]triazolo[4,3-d][1,4]oxazepin-3-yl)-1-methoxy-1-(5-methylpyrimidin-2-yl)propane-2-sulfonamide]	640
COC[C@@H]1COc2ccc(OC)nc2-c2nnc(NS(=O)(=O)[C@@H](C)[C@H](C)c3ncc(OC)cn3)n21 (single isomer, unassigned) [Example 6.0, (2S,3R)-N-((5R)-10-methoxy-5-(methoxymethyl)-5,6-dihydropyrido[2,3-f][1,2,4]triazolo[4,3-d][1,4]oxazepin-3-yl)-3-(5-methoxy-2-pyrimidinyl)-2-butanesulfonamide or (2S,3R)-N-((5S)-10-methoxy-5-(methoxymethyl)-5,6-dihydropyrido[2,3-f][1,2,4]triazolo[4,3-d][1,4]oxazepin-3-yl)-3-(5-methoxy-2-pyrimidinyl)-2-butanesulfonamide]	2300
COc1ccc2c(n1)-c1nnc(NS(=O)(=O)[C@@H](C)[C@@H](OC(C)C)c3ncc(C)cn3)n1[C@H](CO)CO2 (single isomer, unassigned) [Example 19.0, (1S,2S)-N-((R)-5-(hydroxymethyl)-10-methoxy-5,6-dihydropyrido[2,3-f][1,2,4]triazolo[4,3-d][1,4]oxazepin-3-yl)-1-isopropoxy-1-(5-methylpyrimidin-2-yl)propane-2-sulfonamide or (1S,2S)-N-((S)-5-(hydroxymethyl)-10-methoxy-5,6-dihydropyrido[2,3-f][1,2,4]triazolo[4,3-d][1,4]oxazepin-3-yl)-1-isopropoxy-1-(5-methylpyrimidin-2-yl)propane-2-sulfonamide]	990
C=C1COc2ncccc2-c2nnc(NS(=O)(=O)[C@@H](C)[C@@H](OC(C)C)c3ncc(Cl)cn3)n21 [Example 60.0, (1S,2S)-1-(5-chloro-2-pyrimidinyl)-N-(5-methylidene-5,6-dihydropyrido[3,2-f][1,2,4]triazolo[4,3-d][1,4]oxazepin-3-yl)-1-(2-propanyloxy)-2-propanesulfonamide]	850
COC[C@@H]1COc2ncccc2-c2nnc(NS(=O)(=O)[C@@H](C)[C@@H](OC(C)C)c3ncc(C)cn3)n21 (mixture of isomers) [Example 32.0, (1S,2S)-N-((5R)-5-(methoxymethyl)-5,6-dihydropyrido[3,2-f][1,2,4]triazolo[4,3-d][1,4]oxazepin-3-yl)-1-(5-methyl-2-pyrimidinyl)-1-(2-propanyloxy)-2-propanesulfonamide and (1S,2S)-N-((5S)-5-(methoxymethyl)-5,6-dihydropyrido[3,2-f][1,2,4]triazolo[4,3-d][1,4]oxazepin-3-yl)-1-(5-methyl-2-pyrimidinyl)-1-(2-propanyloxy)-2-propanesulfonamide]	140
Cc1cnc([C@H](OC(C)C)[C@H](C)S(=O)(=O)Nc2nnc3n2-c2c(F)cccc2/C=C\C[C@@H]3C)nc1 (single isomer, unassigned) [Example 51.0]	8.6
COC[C@@H]1COc2ccc(F)cc2-c2nnc(NS(=O)(=O)[C@@H](C)[C@H](OC)c3ncc(C)cn3)n21 (single isomer, unassigned) [Example 28.0, (1R,2S)-N-((5R)-10-fluoro-5-(methoxymethyl)-5,6-dihydro[1,2,4]triazolo[4,3-d][1,4]benzoxazepin-3-yl)-1-methoxy-1-(5-methyl-2-pyrimidinyl)-2-propanesulfonamide or (1R,2S)-N-((5S)-10-fluoro-5-(methoxymethyl)-5,6-dihydro[1,2,4]triazolo[4,3-d][1,4]benzoxazepin-3-yl)-1-methoxy-1-(5-methyl-2-pyrimidinyl)-2-propanesulfonamide]	170
